These results are taken from patent publication US8329741B2, “Substituted pyrrolidine compounds with central nervous system activity” (The Research Foundation of State University of New York, priority 2007, dated 2012).

“Also recorded” adds a separate entry of the source. Counter-ions that a name gives are not always drawn.

Series [1] is described as follows: Preparation of drug solutions (dissolution in DMSO). The class given is physicochemical. The note with it: stock solution preparation. As for the experimental part:
(§1) Stock solutions of the drugs (DC1 to DC20) were dissolved in DMSO, and then diluted to 10 mg/10 mL with distilled water such that the final concentration of DMSO was 0.5%. Each animal received 10 mg/kg of the test drug in a volume of 0.1 mL per 10 g. […] These compounds were sonicated for 30 minutes in DMSO, acidified to pH 4 to 5 by drop-wise addition of 1M HCl, and then suspended in 20% cyclodextrin solution.

Series [2] concerns chakragati (ckr) mice. Nature of the series: Screening of candidate compounds based on motor activity in ckr mice. The class given is in vivo, mouse. As to conditions: for overall biological activity: based on receptor binding data and ckr mouse screening data (FIGS. 1 and 2, ANOVA). Here is the method:
To test the effect of compounds, including compounds of the present invention, on CNS function, chakragati (ckr) mice were used as a model. The DC series compounds were tested on motor activity and PPI in ckr mice.
as §1
Twenty ckr mice (male and female, 3 months old) were randomly assigned to receive test drugs or 0.5% DMSO vehicle. Each drug was tested in 5 mice. Each mouse received up to 5 randomly assigned drugs in random order. Each treatment was separated by a minimum washout period of 3 days. On the day of testing, mice were brought into the behavioral test room and allowed to acclimatize for at least 1 hour. They then received intraperitoneal injections of the 0.1 mL/10 g (10 mg/kg) of the test drug solutions or vehicle.
They were returned to their cage and 20 minutes later they were placed in a 190 mm diameter, 300 mm deep circular recording chamber. Four mice were tested simultaneous in 4 separate chambers. Between each testing session the chambers were wiped down with 70% ethanol and allowed to dry for at least 10 minutes The mice were monitored with an overhead video camera for 15 min. Their behavior was videotaped and simultaneously digitized and tracked (Ethovision Version 2, Noldus). The total distance moved, the velocity of movement, and the time spent moving were calculated.
The data for each parameter were separately analyzed by one-way ANOVA (Analysis of Variance) and post hoc Dunnett's comparisons with the vehicle-treated control group. Tukey's HSD test was applied for post hoc comparisons between groups. p<0.05 was considered statistically significant.

The target of series [3] is T1, 5-HT transport sites (Rattus norvegicus, UniProt P31652).
T1 construct: striatum and frontal cortex dissected from frozen Sprague-Dawley rat brains (Pel-Freez, Rogers, Ark.); tissue Pel-Freez, Rogers, Ark; host or cells: rat frontal cortex membranes (Sprague-Dawley rat brain)
The series is described as follows: Displacement of [3H]paroxetine binding in membranes from rat frontal cortex. Here is the method:
Binding of substituted pyrrolidine compounds at biogenic amine transporters was determined using striatum and frontal cortex dissected from frozen Sprague-Dawley rat brains (Pel-Freez, Rogers, Ark.). Affinities of the compounds at dopamine (DA) transport sites were determined by displacement of [^125I] 3 beta-(4-iodophenyl)tropan-2 beta-carboxylic acid methyl ester (RTI-55) binding in membranes from rat striatum, using 0.5 mg (original wet weight) of membranes and 10 pM [^125I]RTI-55. Non-specific binding was determined in the presence of 1 μM 2β-propanoyl-3β-(2-naphthyl) tropane (WF-23). Affinities of the compounds at 5-HT transport sites were determined by displacement of [^3H]paroxetine binding in membranes from rat frontal cortex, using 50 mg (original wet weight) of membranes and 0.4 nM [^3H]paroxetine. Non-specific binding was determined in the presence of 10 μM fluoxetine. Binding of the compounds at norepinephrine (NE) transport sites was determined by displacement of [^3H]nisoxetine binding in membranes from rat forebrain, using 0.7 nM [^3H]nisoxetine. Non-specific binding was determined in the presence of 1 μM desipramine.
Potencies in FIGS. 3 and 4 were calculated from displacement curves using 7-10 concentrations of unlabeled compounds, as analyzed by non-linear curve fitting. […]

Series [4] has as its system ckr mouse. Nature of the series: Validation of ckr mouse model with antipsychotics (hyperactivity and circling). The class given is in vivo. The note with it: concentrations relevant to human clinical use. The text has this:
The ckr mouse was serendipitously created as a result of a transgenic insertional mutation. […] The ckr mouse also appears to show reduced social interactions resembling the social withdrawal that is part of the constellation of negative symptoms of schizophrenia. The mouse also presents lateral ventricular enlargement, which may mirror neuropathological observations in schizophrenia.
The model has been further validated by testing risperidone, haloperidol and pimozide in the ckr mouse. The behavioral output was assayed by measuring the rate of hyperactivity and circling after administration. […] Based on the foregoing, the ckr mouse model is considered to be valid for evaluation of compounds for use in reducing the symptoms of neuropsychiatric disorders in mammals, including humans.

T1 sequence (P31652 whole entry): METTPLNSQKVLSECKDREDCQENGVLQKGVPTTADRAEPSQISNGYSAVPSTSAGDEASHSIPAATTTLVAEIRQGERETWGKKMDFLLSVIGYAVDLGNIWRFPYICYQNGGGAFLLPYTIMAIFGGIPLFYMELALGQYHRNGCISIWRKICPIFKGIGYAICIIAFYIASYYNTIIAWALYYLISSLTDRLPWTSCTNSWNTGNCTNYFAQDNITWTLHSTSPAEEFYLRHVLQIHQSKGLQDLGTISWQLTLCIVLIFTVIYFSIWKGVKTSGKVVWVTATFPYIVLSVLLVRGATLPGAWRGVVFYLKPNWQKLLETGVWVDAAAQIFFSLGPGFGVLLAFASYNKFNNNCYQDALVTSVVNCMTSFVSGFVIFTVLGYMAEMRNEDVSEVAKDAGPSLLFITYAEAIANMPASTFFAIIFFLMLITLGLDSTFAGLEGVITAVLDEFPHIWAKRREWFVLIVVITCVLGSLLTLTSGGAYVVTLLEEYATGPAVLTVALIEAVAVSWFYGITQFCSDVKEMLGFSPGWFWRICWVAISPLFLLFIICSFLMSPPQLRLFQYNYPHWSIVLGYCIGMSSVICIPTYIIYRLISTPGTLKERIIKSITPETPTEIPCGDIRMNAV

As to `COC(=O)[C@H](c1ccc2ccccc2c1)[C@@H]1C[C@@H](OC)CN1` [DC16, (R)-methyl 2-((2S,4R)-4-methoxypyrrolidin-2-yl)-2-(naphthalen-2-yl)acetate hydrochloride], in series [1], the “solubility in DMSO alone” value is recorded as “difficult to dissolve in DMSO alone”. For the same compound, in series [2] (hydrochloride), the overall biological activity entry is listed as “has biological activity; also recorded: favorable biological activity”. In series [2] (ckr mice, 10 mg/kg intraperitoneal, 20 minutes after injection, monitored 15 min, vs vehicle (FIG. 1a)), the total distance moved result was “trend towards decreased”. Besides, the velocity of movement result in series [2] (ckr mice, 10 mg/kg intraperitoneal, 20 minutes after injection, monitored 15 min, vs vehicle (FIG. 1b)) is on record as “trend towards decreased”. In series [2] (ckr mice, 10 mg/kg intraperitoneal, 20 minutes after injection, monitored 15 min, vs vehicle (FIG. 1c)), the time spent moving entry was “trend towards a decrease”.

Turning to `COC(=O)[C@H](c1ccc(Cl)c(Cl)c1)[C@@H]1C[C@@H](O)CN1` [DC-17, (R)-methyl 2-(3,4-dichlorophenyl)-2-((2S,4R)-4-hydroxypyrrolidin-2-yl)acetate hydrochloride], the overall biological activity result in series [2] was “favorable biological activity”. In the case of `COC(=O)[C@H](c1ccc2ccccc2c1)[C@@H]1C[C@@H](O)CN1.Cl` [HDMP-80, (R)-methyl 2-((2S,4R)-4-hydroxypyrrolidin-2-yl)-2-(naphthalen-2-yl)acetate hydrochloride], in series [3], the “binding affinity for the serotonin transporter” value was “high binding affinity”.

Consider `O=C(CCCN1CCC(O)(c2ccc(Cl)cc2)CC1)c1ccc(F)cc1` [haloperidol], for which the “hyperactivity in ckr mice” value in series [4] is given as “dose-dependent attenuation”. On the same count and under the same terms, as for `Cc1nc2n(c(=O)c1CCN1CCC(c3noc4cc(F)ccc34)CC1)CCCC2` [risperidone], the entry is “dose-dependent attenuation”.
